Assay results reported in patent publication US10894793B2, “Bicyclic pyridine, pyrazine, and pyrimidine derivatives as PI3K beta inhibitors” (Janssen Pharmaceutica NV, priority 2016, dated 2021).
Read-outs that look alike come from different tables or passages of the source.

What was measured:
MTOR_h = biological target: T1, MTOR_h (Homo sapiens, UniProt P42345); assay: Enzyme binding assay (KINOMEscan); details: DiscoveRx
T1 construct: purchased DiscoveRx Corporation
Description: (§1) Enzyme Binding Assays (KINOMEscan®)
(§2) Kinase enzyme binding affinities of compounds disclosed herein were determined using the KINOMEscan technology performed by DiscoveRx Corporation, San Diego, Calif., USA (www.kinomescan.com). Table A reports the obtained Kd values (nM), with the Kd being the inhibitor binding constant: […]

PIK3Cα_h = biological target: T2, PIK3Cα_h (Homo sapiens, UniProt P42336); assay: Enzyme binding assay (KINOMEscan); details: DiscoveRx
T2 construct: purchased DiscoveRx Corporation
T2 sequence (P42336 whole entry): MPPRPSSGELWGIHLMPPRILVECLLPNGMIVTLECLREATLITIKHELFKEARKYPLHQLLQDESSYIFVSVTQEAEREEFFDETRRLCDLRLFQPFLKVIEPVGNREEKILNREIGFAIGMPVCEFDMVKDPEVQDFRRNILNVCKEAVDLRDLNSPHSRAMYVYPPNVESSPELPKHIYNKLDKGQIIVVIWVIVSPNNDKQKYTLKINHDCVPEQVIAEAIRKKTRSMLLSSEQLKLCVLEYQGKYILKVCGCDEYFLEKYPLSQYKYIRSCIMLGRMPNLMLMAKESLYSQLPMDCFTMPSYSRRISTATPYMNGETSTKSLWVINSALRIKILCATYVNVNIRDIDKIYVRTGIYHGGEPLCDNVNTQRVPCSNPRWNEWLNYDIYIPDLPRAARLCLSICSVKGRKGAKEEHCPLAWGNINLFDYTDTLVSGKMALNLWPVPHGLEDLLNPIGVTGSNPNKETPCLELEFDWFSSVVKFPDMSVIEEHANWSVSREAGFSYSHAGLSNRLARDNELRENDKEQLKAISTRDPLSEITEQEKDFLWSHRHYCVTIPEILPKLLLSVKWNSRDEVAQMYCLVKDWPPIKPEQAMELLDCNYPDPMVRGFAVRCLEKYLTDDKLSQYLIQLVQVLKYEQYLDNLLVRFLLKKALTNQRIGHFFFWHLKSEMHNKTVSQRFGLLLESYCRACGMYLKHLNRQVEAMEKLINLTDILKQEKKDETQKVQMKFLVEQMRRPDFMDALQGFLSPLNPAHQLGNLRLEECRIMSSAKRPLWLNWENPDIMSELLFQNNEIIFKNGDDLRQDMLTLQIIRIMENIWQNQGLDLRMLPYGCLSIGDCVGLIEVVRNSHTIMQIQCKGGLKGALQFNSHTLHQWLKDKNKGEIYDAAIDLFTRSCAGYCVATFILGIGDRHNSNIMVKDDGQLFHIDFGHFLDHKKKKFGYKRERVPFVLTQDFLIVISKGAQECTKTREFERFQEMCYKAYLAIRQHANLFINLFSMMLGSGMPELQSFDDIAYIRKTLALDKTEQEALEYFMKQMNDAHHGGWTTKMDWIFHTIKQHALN
Description: as §1, §2

PIK3Cβ_h = biological target: T3, PIK3Cβ_h (Homo sapiens, UniProt P42338); assay: Enzyme binding assay (KINOMEscan); details: DiscoveRx
T3 construct: purchased DiscoveRx Corporation
T3 sequence (P42338 whole entry): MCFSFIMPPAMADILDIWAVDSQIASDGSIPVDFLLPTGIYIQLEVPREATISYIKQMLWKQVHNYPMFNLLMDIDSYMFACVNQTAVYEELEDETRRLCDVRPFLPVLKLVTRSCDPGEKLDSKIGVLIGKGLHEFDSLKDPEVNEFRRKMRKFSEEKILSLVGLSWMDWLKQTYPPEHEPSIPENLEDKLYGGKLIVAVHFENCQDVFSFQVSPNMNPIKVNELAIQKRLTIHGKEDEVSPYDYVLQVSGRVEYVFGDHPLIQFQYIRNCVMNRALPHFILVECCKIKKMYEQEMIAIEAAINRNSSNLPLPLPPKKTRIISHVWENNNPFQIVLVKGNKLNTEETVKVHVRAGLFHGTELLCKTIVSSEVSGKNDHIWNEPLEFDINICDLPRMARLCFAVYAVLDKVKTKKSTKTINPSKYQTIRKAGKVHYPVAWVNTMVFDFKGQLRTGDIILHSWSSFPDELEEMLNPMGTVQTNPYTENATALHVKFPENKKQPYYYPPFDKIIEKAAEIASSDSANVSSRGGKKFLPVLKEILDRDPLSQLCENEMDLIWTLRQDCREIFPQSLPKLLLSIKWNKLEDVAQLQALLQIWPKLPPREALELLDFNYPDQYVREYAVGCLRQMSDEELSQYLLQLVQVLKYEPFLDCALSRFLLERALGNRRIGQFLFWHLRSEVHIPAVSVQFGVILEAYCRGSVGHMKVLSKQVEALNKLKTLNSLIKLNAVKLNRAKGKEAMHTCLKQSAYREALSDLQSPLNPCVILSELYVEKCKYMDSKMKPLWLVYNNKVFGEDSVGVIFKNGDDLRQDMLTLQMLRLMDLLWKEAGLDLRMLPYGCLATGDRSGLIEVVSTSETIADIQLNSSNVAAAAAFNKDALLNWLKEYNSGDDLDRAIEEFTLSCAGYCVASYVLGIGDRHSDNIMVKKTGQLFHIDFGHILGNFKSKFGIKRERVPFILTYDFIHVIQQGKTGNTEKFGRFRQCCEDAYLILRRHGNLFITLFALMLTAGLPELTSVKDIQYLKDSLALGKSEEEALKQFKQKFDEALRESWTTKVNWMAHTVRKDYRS
Description: as §1, §2

PIK3Cγ_h = biological target: T4, PIK3Cγ_h (Homo sapiens, UniProt P48736); assay: Enzyme binding assay (KINOMEscan); details: DiscoveRx
T4 construct: purchased DiscoveRx Corporation
T4 sequence (P48736 whole entry): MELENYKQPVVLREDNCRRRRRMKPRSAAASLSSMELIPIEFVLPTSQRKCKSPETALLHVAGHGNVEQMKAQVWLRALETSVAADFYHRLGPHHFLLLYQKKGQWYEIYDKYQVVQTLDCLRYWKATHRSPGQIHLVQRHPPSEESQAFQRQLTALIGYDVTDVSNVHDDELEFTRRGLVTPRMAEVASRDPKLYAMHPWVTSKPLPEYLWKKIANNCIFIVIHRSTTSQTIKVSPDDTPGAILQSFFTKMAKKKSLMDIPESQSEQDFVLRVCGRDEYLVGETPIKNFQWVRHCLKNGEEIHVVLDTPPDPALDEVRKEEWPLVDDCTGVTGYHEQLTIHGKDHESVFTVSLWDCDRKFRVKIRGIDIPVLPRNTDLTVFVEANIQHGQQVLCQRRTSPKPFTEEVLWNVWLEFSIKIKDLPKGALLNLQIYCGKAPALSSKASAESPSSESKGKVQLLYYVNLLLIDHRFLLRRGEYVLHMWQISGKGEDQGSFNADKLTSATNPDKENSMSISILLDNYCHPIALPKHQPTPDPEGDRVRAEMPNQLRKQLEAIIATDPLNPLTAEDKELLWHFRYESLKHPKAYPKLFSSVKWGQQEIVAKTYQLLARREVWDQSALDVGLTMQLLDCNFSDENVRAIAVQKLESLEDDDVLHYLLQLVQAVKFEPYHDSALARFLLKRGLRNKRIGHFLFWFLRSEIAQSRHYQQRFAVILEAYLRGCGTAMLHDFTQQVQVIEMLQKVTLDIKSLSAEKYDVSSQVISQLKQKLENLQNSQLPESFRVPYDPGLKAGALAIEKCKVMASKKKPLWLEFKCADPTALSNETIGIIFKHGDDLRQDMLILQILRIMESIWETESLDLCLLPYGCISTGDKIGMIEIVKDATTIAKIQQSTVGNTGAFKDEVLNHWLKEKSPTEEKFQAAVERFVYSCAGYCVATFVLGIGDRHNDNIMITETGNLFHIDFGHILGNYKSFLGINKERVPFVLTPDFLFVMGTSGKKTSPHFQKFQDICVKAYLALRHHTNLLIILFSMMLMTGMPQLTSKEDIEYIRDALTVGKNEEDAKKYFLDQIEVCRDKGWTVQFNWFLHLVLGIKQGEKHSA
Description: as §1, §2

PIK3Cδ_h = biological target: T5, PIK3Cδ_h (Homo sapiens, UniProt O00329); assay: Enzyme binding assay (KINOMEscan); details: DiscoveRx
T5 construct: purchased DiscoveRx Corporation
T5 sequence (O00329 1-1044): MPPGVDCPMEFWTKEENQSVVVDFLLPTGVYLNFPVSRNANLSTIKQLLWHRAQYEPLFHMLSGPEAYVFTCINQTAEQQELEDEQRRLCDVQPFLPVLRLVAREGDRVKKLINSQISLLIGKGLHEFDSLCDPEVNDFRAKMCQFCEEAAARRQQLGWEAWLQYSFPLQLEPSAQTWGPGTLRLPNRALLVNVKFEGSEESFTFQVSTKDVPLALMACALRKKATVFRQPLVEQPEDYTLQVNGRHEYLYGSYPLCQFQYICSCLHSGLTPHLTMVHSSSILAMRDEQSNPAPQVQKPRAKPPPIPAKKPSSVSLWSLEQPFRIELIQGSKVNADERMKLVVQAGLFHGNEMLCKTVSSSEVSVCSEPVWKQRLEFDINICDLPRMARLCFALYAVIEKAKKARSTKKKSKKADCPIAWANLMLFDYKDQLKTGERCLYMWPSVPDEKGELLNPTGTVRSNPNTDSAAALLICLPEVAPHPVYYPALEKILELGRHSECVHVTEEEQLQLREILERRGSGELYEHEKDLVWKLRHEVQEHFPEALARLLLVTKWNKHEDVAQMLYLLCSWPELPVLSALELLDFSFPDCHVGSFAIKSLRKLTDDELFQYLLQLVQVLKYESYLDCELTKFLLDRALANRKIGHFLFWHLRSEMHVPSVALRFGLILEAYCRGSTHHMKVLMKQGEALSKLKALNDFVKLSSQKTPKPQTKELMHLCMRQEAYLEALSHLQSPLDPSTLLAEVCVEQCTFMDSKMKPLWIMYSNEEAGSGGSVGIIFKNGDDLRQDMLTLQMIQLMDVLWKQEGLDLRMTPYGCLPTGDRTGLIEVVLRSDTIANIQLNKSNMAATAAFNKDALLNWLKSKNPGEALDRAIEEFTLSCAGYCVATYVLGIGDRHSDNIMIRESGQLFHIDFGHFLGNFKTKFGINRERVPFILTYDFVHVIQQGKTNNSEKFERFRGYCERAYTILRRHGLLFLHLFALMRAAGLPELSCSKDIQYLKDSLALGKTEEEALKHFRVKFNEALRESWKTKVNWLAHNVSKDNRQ
Description: as §1, §2

[1] = system: Akt phosphorylated at Ser473 in PC-3 cells; assay: Cellular assay: phosphorylation of Akt (Ser473) in PC-3 cells, MSD ELISA; format: cell-based; details: 60 min compound incubation, read-out: IC50 pAkt_S473
Description: (§3) Cellular activity of PI3Kβ inhibitors was determined by quantifying the phosphorylation of Akt in PC-3 cells. Akt phosphorylated at Ser473 and Thr308 were measured using an enzyme-linked immunosorbent assay (ELISA; Meso Scale Discovery (MSD), Gaithersburg, Md.) and specific primary antibodies from MSD.
(§4) On day 1, PC3 cells (ATCC #[…]) were seeded into PerkinElmer MW96 plates at 25.000 cells per well, in 75 μl complete culture medium (DMEM high glucose, AQmedia™, D0819, Sigma-Aldrich) containing 10% heat inactivated FCS and incubated at 37° C., […] during 24 hours. On day 2, compound or DMSO (0.3%) was added and cells were further incubated for 60 min at 37° C., 5% CO2 in a total volume of 100 μl of medium.
(§5) The phosphoprotein assay was executed according to vendor instructions in the Phospho-Akt (Ser473) Assay Whole Cell Lysate Kit (MSD #K15100D-3) and the Phospho-Akt (Thr308) Assay Whole Cell Lysate Kit (MSD #K151DYD-3) using the lysis, blocking and wash buffer provided.
(§6) Briefly, at the end of the cell treatment period, media were removed by aspiration and adherent cells were lysed in 50 μl ice-cold lysis buffer. MSD plates are supplied pre-coated with capture antibodies for Phospho-Akt (Ser473 and Thr308). After blocking, lysates from tissue culture plates were added and plates were washed. Then, a solution containing the detection antibody (anti-total Akt conjugated with an electrochemiluminescent compound-MSD Sulfo-tag label) was added. The signals were detected using an MSD SECTOR Imager 6000 and are proportional to the phospho-Akt titres.
(§7) Data were processed. The percentage of inhibition was plotted against the log concentration of test compounds, and the sigmoidal log concentration-effect curve of best fit was calculated by nonlinear regression analysis. From these concentration-response curves, the IC50 values were calculated. Five concentrations were used for curve fitting.

[2] = system: Akt phosphorylated at Thr308 in PC-3 cells; assay: Cellular assay: phosphorylation of Akt (Thr308) in PC-3 cells, MSD ELISA; format: cell-based; details: 60 min compound incubation, read-out: IC50 pAkt_Thr308
Description: as §3, §4, §5, §6, §7

| Kd (MTOR_h) [nM] | Kd (PIK3Cα_h) [nM] | Kd (PIK3Cβ_h) [nM] | Kd (PIK3Cγ_h) [nM] | Kd (PIK3Cδ_h) [nM] | IC50 [1] [nM] | IC50 [2] [nM] | IC50 ([2]; Homo sapiens, PC-3, 1 h) [nM] | IC50 ([1]; Homo sapiens, PC-3, 1 h) [nM] | Structure (SMILES) |
| --- | --- | --- | --- | --- | --- | --- | --- | --- | --- |
| > 30200 | > 30200 | 6.5 | > 30200 | 759 | 347 | 170 |  |  | Cc1c(Cc2c(CN3CCC4(CCS(=O)(=O)C4)C3)nc3ncc(N4CCOCC4)cn23)cccc1C(F)(F)F (single isomer, unassigned) [Compound 24a] |
| > 30200 | 11500 | 1.4 | > 30200 | 468 |  |  | > 513 |  | Cc1nc2c(C(=O)O)nc(C3=CCOCC3)cn2c1Cc1cccc(C(F)(F)F)c1C [Compound 3] |
| > 30200 | 12000 | 7.6 | 14800 | 3020 |  |  | 479 | > 513 | Cc1nc2c(CO)nc(C3=CCOCC3)cn2c1Cc1cccc(C(F)(F)F)c1C [Compound 4] |
| > 30200 | > 30200 | 120 | > 30200 | 8130 |  |  | > 513 | > 513 | Cc1c(Cc2c(CN3C[C@@H](C)N[C@@H](C)C3)nc3cnc(N4CCOCC4)cn23)cccc1C(F)(F)F [Compound 11] |
| > 30200 | > 30200 | 68 | > 30200 | 5490 |  |  | > 513 | > 513 | Cc1c(Cc2c(CNCCO)nc3cnc(N4CCOCC4)cn23)cccc1C(F)(F)F [Compound 12] |
| > 30200 | > 30200 | 155 | > 30200 | 15100 |  |  | > 513 | > 513 | Cc1c(Cc2c(CC(=O)N3C[C@@H](C)N[C@@H](C)C3)nc3cnc(N4CCOCC4)cn23)cccc1C(F)(F)F [Compound 14] |
| > 30200 | > 30200 | 141 | > 30200 | 11200 |  |  |  |  | Cc1c(Cc2c(CC(=O)N3CC(CO)C3)nc3cnc(N4CCOCC4)cn23)cccc1C(F)(F)F [Compound 15] |
| 17900 | 3500 | 1.4 | 15300 | 442 |  |  | 43 | 72 | Cc1c(Cc2c(CO)nc3ncc(N4CCOCC4)cn23)cccc1C(F)(F)F [Compound 18] |
| > 30200 | > 30200 | 76 | > 30200 | 7240 |  |  | > 513 | > 513 | Cc1c(Cc2c(CN3CCCC4(CNC4)C3)nc3ncc(N4CCOCC4)cn23)cccc1C(F)(F)F [Compound 20] |
| > 30200 | 2570 | 11 | > 30200 | 1410 |  |  | ~174 | 288 | Cc1c(Cc2c(CN3CCC4(CCS(=O)(=O)C4)C3)nc3ncc(N4CCOCC4)cn23)cccc1C(F)(F)F (stereo not drawn) [Compound 24] |
| 5620 | 5890 | 8.9 | 7240 | 759 |  |  | 120 | 195 | Cc1c(F)cccc1Cc1c(CO)nc2ncc(N3CCOCC3)cn12 [Compound 25] |
| > 30200 | 4170 | 6.8 | > 30200 | 697 |  |  | 71 | 479 | Cc1c(Cc2c(CN3CCC4(CCCS4(=O)=O)C3)nc3ncc(N4CCOCC4)cn23)cccc1C(F)(F)F (stereo not drawn) [Compound 26] |
| > 30200 | 9550 | 363 | > 30200 | 2570 |  |  | 417 | > 513 | Cc1nc2ccc(N3CCOCC3)cn2c1Cc1cccc(C(F)(F)F)c1C [Compound 27] |
| > 30200 | 6920 | 126 | 14500 | 2140 |  |  | 50 | 155 | Cc1c(Cc2c(CF)nc3ccc(N4CCOCC4)cn23)cccc1C(F)(F)F [Compound 29] |
| > 10000 | > 10000 | 631 | > 30200 | 5750 |  |  |  |  | CCOC(=O)Cc1nc2ccc(N3CCOCC3)cn2c1Cc1cccc(C(F)(F)F)c1C [Compound 30] |
| > 30200 | > 30200 | 20 | > 30200 | 1350 |  |  | > 513 | 479 | Cc1c(Cc2c(CN3CCCC4(CNC4)C3)nc3ccc(N4CCOCC4)cn23)cccc1C(F)(F)F [Compound 31] |
| 27500 | 7240 | 2.2 | 8510 | 324 |  |  | ~178 | 191 | Cc1c(Cc2c(CN3CC4(CCN4)C3)nc3ccc(N4CCOCC4)cn23)cccc1C(F)(F)F [Compound 32] |
| > 30200 | 589 | 3 | > 30200 | 316 |  |  | 15 | 16 | Cc1c(Cc2c(CN3CC4(C3)CS(=O)(=O)C4)nc3ccc(N4CCOCC4)cn23)cccc1C(F)(F)F [Compound 33] |
| 23200 | 16900 | 9 | > 30200 | 741 |  |  | 70 | 110 | Cc1c(Cc2c(CNCCO)nc3ccc(N4CCOCC4)cn23)cccc1C(F)(F)F [Compound 34] |
| 21900 | 22400 | 5.8 | > 30200 | 575 |  |  | 89 | 74 | Cc1c(Cc2c(CNCCCO)nc3ccc(N4CCOCC4)cn23)cccc1C(F)(F)F [Compound 35] |
| > 30200 | > 30200 | 22 | > 30200 | 2140 |  |  | ~132 | ~224 | Cc1c(Cc2c(CN(C)CCO)nc3ccc(N4CCOCC4)cn23)cccc1C(F)(F)F [Compound 36] |
| 24000 | 10200 | 20 | > 30200 | 1440 |  |  | ~282 | 282 | CC(=O)N(CCO)Cc1nc2ccc(N3CCOCC3)cn2c1Cc1cccc(C(F)(F)F)c1C [Compound 37] |
| 2290 | 2950 | 71 | 4370 | 2040 |  |  | > 513 | > 513 | Cc1c(Cc2c(CO)nc3c(-c4ccn[nH]4)cc(N4CCOCC4)cn23)cccc1C(F)(F)F [Compound 38] |
